Reference: the supplement of paper PMC10307832

How the values were obtained:
Test in all cases: relative viability (nuclei count vs DMSO), 5 days (fraction); higher = more cells survive
ABC-1 = test system: ABC-1
Procedure, shortened: (§1)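 Lung cancer cell lines in 1536-well plates got either a single drug or a fixed anchor-drug dose together with five library-drug doses (not always all listed) in √10 steps, by pin tool, on the day after seeding. Nuclei were counted after 5 days, and relative viability is the treated-to-vehicle ratio of nuclei counts. Values are medians of duplicate plates.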

CAL-12T = test system: CAL-12T
Procedure, shortened: as §1

COR-L 105 = test system: COR-L 105
Procedure, shortened: as §1

ChaGo-K-1 = test system: ChaGo-K-1
Procedure, shortened: as §1

EMC-BAC-2 = test system: EMC-BAC-2
Procedure, shortened: as §1

EPLC-272H = test system: EPLC-272H
Procedure, shortened: as §1

HCC-15 = test system: HCC-15
Procedure, shortened: as §1

HCC-78 = test system: HCC-78
Procedure, shortened: as §1

HOP-62 = test system: HOP-62
Procedure, shortened: as §1

LXF-289 = test system: LXF-289
Procedure, shortened: as §1

NCI-H1666 = test system: NCI-H1666
Procedure, shortened: as §1

NCI-H1755 = test system: NCI-H1755
Procedure, shortened: as §1

NCI-H1915 = test system: NCI-H1915
Procedure, shortened: as §1

NCI-H1975 = test system: NCI-H1975
Procedure, shortened: as §1

NCI-H1993 = test system: NCI-H1993
Procedure, shortened: as §1

NCI-H2023 = test system: NCI-H2023
Procedure, shortened: as §1

NCI-H2085 = test system: NCI-H2085
Procedure, shortened: as §1

NCI-H2126 = test system: NCI-H2126
Procedure, shortened: as §1

NCI-H3122 = test system: NCI-H3122
Procedure, shortened: as §1

NCI-H322M = test system: NCI-H322M
Procedure, shortened: as §1

NCI-H358 = test system: NCI-H358
Procedure, shortened: as §1

NCI-H441 = test system: NCI-H441
Procedure, shortened: as §1

UMC-11 = test system: UMC-11
Procedure, shortened: as §1

Q: What does the source list for `Oc1nc(-c2ccc(C(F)(F)F)cc2)nc2c1CSCC2` [XAV939] + COc1cccc2cc(-c3nc([C@H]4CC[C@H](C(=O)O)CC4)n4ncnc(N)c34)[nH]c12 [OSI-027] (partner 0.5 µM)?
A: relative viability (ABC-1; first compound 0.08 µM): 0.44; relative viability (ABC-1; first compound 0.253 µM): 0.532; relative viability (ABC-1; first compound 0.8 µM): 0.374; relative viability (ABC-1; first compound 2.53 µM): 0.28; relative viability (CAL-12T; first compound 0.08 µM): 0.635; relative viability (CAL-12T; first compound 0.253 µM): 0.363; relative viability (CAL-12T; first compound 0.8 µM): 0.441; relative viability (CAL-12T; first compound 2.53 µM): 0.335; relative viability (COR-L 105; first compound 0.08 µM): 0.722; relative viability (COR-L 105; first compound 0.253 µM): 0.589; relative viability (COR-L 105; first compound 0.8 µM): 0.5; relative viability (COR-L 105; first compound 2.53 µM): 0.482; relative viability (ChaGo-K-1; first compound 0.08 µM): 0.562; relative viability (ChaGo-K-1; first compound 0.253 µM): 0.534; relative viability (ChaGo-K-1; first compound 0.8 µM): 0.533; relative viability (ChaGo-K-1; first compound 2.53 µM): 0.472; relative viability (EMC-BAC-2; first compound 0.08 µM): 0.402; relative viability (EMC-BAC-2; first compound 0.253 µM): 0.344; relative viability (EMC-BAC-2; first compound 0.8 µM): 0.319; relative viability (EMC-BAC-2; first compound 2.53 µM): 0.236; relative viability (EPLC-272H; first compound 0.08 µM): 0.312; relative viability (EPLC-272H; first compound 0.253 µM): 0.22; relative viability (EPLC-272H; first compound 0.8 µM): 0.261; relative viability (EPLC-272H; first compound 2.53 µM): 0.314; relative viability (HCC-15; first compound 0.08 µM): 0.797; relative viability (HCC-15; first compound 0.253 µM): 0.619; relative viability (HCC-15; first compound 0.8 µM): 0.738; relative viability (HCC-15; first compound 2.53 µM): 0.655; relative viability (HCC-78; first compound 0.08 µM): 0.341; relative viability (HCC-78; first compound 0.253 µM): 0.361; relative viability (HCC-78; first compound 0.8 µM): 0.356; relative viability (HCC-78; first compound 2.53 µM): 0.297; relative viability (HOP-62; first compound 0.08 µM): 1.01; relative viability (HOP-62; first compound 0.253 µM): 0.773; relative viability (HOP-62; first compound 0.8 µM): 0.763; relative viability (HOP-62; first compound 2.53 µM): 0.574; relative viability (LXF-289; first compound 0.08 µM): 0.817; relative viability (LXF-289; first compound 0.253 µM): 0.721; relative viability (LXF-289; first compound 0.8 µM): 0.746; relative viability (LXF-289; first compound 2.53 µM): 0.658; relative viability (NCI-H1666; first compound 0.08 µM): 0.883; relative viability (NCI-H1666; first compound 0.253 µM): 0.711; relative viability (NCI-H1666; first compound 0.8 µM): 0.752; relative viability (NCI-H1666; first compound 2.53 µM): 0.627; relative viability (NCI-H1755; first compound 0.08 µM): 0.731; relative viability (NCI-H1755; first compound 0.253 µM): 0.683; relative viability (NCI-H1755; first compound 0.8 µM): 0.739; relative viability (NCI-H1755; first compound 2.53 µM): 0.585; relative viability (NCI-H1915; first compound 0.08 µM): 0.707; relative viability (NCI-H1915; first compound 0.253 µM): 0.321; relative viability (NCI-H1915; first compound 0.8 µM): 0.597; relative viability (NCI-H1915; first compound 2.53 µM): 0.589; relative viability (NCI-H1975; first compound 0.08 µM): 0.829; relative viability (NCI-H1975; first compound 0.253 µM): 0.639; relative viability (NCI-H1975; first compound 0.8 µM): 0.681; relative viability (NCI-H1975; first compound 2.53 µM): 0.526; relative viability (NCI-H1993; first compound 0.08 µM): 0.563; relative viability (NCI-H1993; first compound 0.253 µM): 0.493; relative viability (NCI-H1993; first compound 0.8 µM): 0.596; relative viability (NCI-H1993; first compound 2.53 µM): 0.461; relative viability (NCI-H2023; first compound 0.08 µM): 0.368; relative viability (NCI-H2023; first compound 0.253 µM): 0.288; relative viability (NCI-H2023; first compound 0.8 µM): 0.321; relative viability (NCI-H2023; first compound 2.53 µM): 0.251; relative viability (NCI-H2085; first compound 0.08 µM): 0.638; relative viability (NCI-H2085; first compound 0.253 µM): 0.686; relative viability (NCI-H2085; first compound 0.8 µM): 0.958; relative viability (NCI-H2085; first compound 2.53 µM): 0.625; relative viability (NCI-H2126; first compound 0.08 µM): 0.651; relative viability (NCI-H2126; first compound 0.253 µM): 0.649; relative viability (NCI-H2126; first compound 0.8 µM): 0.682; relative viability (NCI-H2126; first compound 2.53 µM): 0.61; relative viability (NCI-H3122; first compound 0.08 µM): 1.08; relative viability (NCI-H3122; first compound 0.253 µM): 0.96; relative viability (NCI-H3122; first compound 0.8 µM): 0.91; relative viability (NCI-H3122; first compound 2.53 µM): 0.581; relative viability (NCI-H322M; first compound 0.08 µM): 0.615; relative viability (NCI-H322M; first compound 0.253 µM): 0.594; relative viability (NCI-H322M; first compound 0.8 µM): 0.504; relative viability (NCI-H322M; first compound 2.53 µM): 0.406; relative viability (NCI-H358; first compound 0.08 µM): 0.793; relative viability (NCI-H358; first compound 0.253 µM): 0.624; relative viability (NCI-H358; first compound 0.8 µM): 0.785; relative viability (NCI-H358; first compound 2.53 µM): 0.605; relative viability (NCI-H441; first compound 0.08 µM): 0.657; relative viability (NCI-H441; first compound 0.253 µM): 0.794; relative viability (NCI-H441; first compound 0.8 µM): 0.697; relative viability (NCI-H441; first compound 2.53 µM): 0.568; relative viability (UMC-11; first compound 0.08 µM): 0.456; relative viability (UMC-11; first compound 0.253 µM): 0.478; relative viability (UMC-11; first compound 0.8 µM): 0.538; relative viability (UMC-11; first compound 2.53 µM): 0.44
